Reference: ChEMBL document CHEMBL1141422, “Isolation and structures of erylosides from the Caribbean sponge Erylus formosus” (J Nat Prod, 2007)
Calls of active or inactive are those of the source. The rule behind the calls is not given here.

Legend:
[1] = Activation of calcium influx into mouse splenocytes at 100 ug/ml relative to control; assay type: functional, cell-based; settings: Splenocyte
Ehrlich = assay: Induction of apoptosis in mouse Ehrlich carcinoma cells at 100 ug/ml; assay type: functional, cell-based

SMILES	Activity [1] [%]	Activity (Ehrlich)
CC(C)=CCC[C@@H](C)[C@H]1CC[C@@]2(C(=O)O)C3=C(CC[C@]12C)[C@@]1(C)CC[C@H](O[C@@H]2OC[C@H](O)[C@H](O)[C@H]2O[C@@H]2O[C@H](CO)[C@H](O)[C@H](O)[C@H]2O)C(C)(C)[C@@H]1CC3	130	
C=C(C)[C@@H](O)CC[C@@H](C)[C@H]1CC[C@@]2(C(=O)O)C3=C(CC[C@]12C)[C@@]1(C)CC[C@H](O[C@@H]2OC[C@H](O)[C@H](O)[C@H]2O[C@@H]2O[C@H](CO)[C@H](O)[C@H](O)[C@H]2O)C(C)(C)[C@@H]1CC3		Active
C=C(CC[C@@H](C)[C@H]1CC[C@@]2(C(=O)O)C3=C(CC[C@]12C)[C@@]1(C)CC[C@H](O[C@@H]2OC[C@H](O)[C@H](O)[C@H]2O[C@@H]2O[C@H](CO)[C@H](O)[C@H](O)[C@H]2O)C(C)(C)[C@@H]1CC3)C(C)C	130	
